Reference: PubChem BioAssay (NCI)
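Five concentrations, 48 hours, 96-well plates. TGI is the concentration that stops growth completely.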

Columns and labels:
Assay in all cases: NCI-60 cell line screen, 48 h
[1] = system: UACC-62 melanoma
[2] = system: MOLT-4 leukemia
[3] = system: MALME-3M melanoma
[4] = system: LOX IMVI melanoma
[5] = system: OVCAR-5 ovarian
[6] = system: HL-60(TB) leukemia
[7] = system: SF-539 CNS
[8] = system: MCF7 breast
[9] = system: SN12C renal
[10] = system: MDA-MB-231 breast
[11] = system: CCRF-CEM leukemia
[12] = system: DU-145 prostate
[13] = system: NCI-H226 lung
[14] = system: UACC-257 melanoma
[15] = system: HS 578T breast

| Compound | TGI [1] [µM] | TGI [2] [µM] | TGI [3] [µM] | TGI [4] [µM] | TGI [5] [µM] | TGI [6] [µM] | TGI [7] [µM] | TGI [8] [µM] | TGI [9] [µM] | TGI [10] [µM] | TGI [11] [µM] | TGI [12] [µM] | TGI [13] [µM] | TGI [14] [µM] | TGI [15] [µM] |
| --- | --- | --- | --- | --- | --- | --- | --- | --- | --- | --- | --- | --- | --- | --- | --- |
| C[C@@H]1CCC2[C@@H](C)[C@H](O[C@H]3O[C@@H]4O[C@@]5(C)CCC6[C@H](C)CCC([C@H]3C)[C@]64OO5)O[C@@H]3O[C@@]4(C)CCC1[C@@]23OO4 (stereo not given in full) | 15.9 | 15 | 19.1 | 1.58 | 10.3 | 3.81 | 21.9 | 25.3 | 15.6 | 13.1 | 18.3 | 19.5 | 34.1 | 18.6 | 24.2 |
| CC/C(Cl)=N\OC(=O)Nc1ccccc1OC(F)(F)F | 37.1 | 4.77 | 17.6 | 5.65 | 36.9 | 3.6 | 31 | > 51.3 | 14.2 | 34.2 | 3.42 | 33.9 | 38.1 | 32.8 | > 68.2 |
| Nc1ccn([C@H]2CO[C@@H](CO)O2)c(=O)n1 | > 46.4 | 49.5 | > 100 | > 100 | > 100 | > 67.2 | 68.4 | > 100 | > 100 | > 100 | > 92 | > 22.6 | > 100 | > 100 | > 100 |
| CC1=NN(C(=O)CC(=O)Nc2ccccc2C)C(=O)C1N=Nc1ccc(S(=O)(=O)c2ccc(N=NC3C(=O)N(C(=O)CC(=O)Nc4ccccc4C)N=C3C)cc2)cc1 (stereo not given) | > 100 | > 100 | > 100 | > 100 | > 100 | > 100 | > 100 | > 100 | > 100 | > 100 | > 100 | > 100 | > 100 | > 100 | > 100 |
| C=CC1(c2ccc3ccccc3c2)OCC(CC)(CC)CO1 | 46 | 38.8 | 49.1 | 34.5 | 38.5 | 41.4 | 33.5 | 56.2 | 44.5 | 33.9 | 40.1 | > 100 | 33.4 | 64.2 | 41.6 |
| Cc1cc(=O)oc2c(CNC(C)C(=O)O)c(O)ccc12 (stereo not given) | > 100 | > 100 | > 100 | > 100 | > 100 | > 100 | > 100 | > 100 | > 100 | > 100 | > 100 | > 100 | > 100 | > 100 | > 100 |
| Oc1ccc(-c2c3ccccc3c(-c3ccc(OCCBr)cc3)c3ccccc23)cc1 | 42.1 | > 100 | 33.8 | 38.9 | > 100 | 70.1 | 32.4 | 32 | 59.9 | 44.6 | > 100 | > 100 | 54.5 | 54.5 | 82.2 |
| CCOC(=O)C1(Cc2ccccc2)Cc2cc3c(cc2C1=O)CCC3 (stereo not given) | > 100 | > 100 | > 100 | > 100 | > 100 | > 100 | > 100 | > 100 | > 100 | > 100 | > 100 | > 100 | > 100 | > 100 | > 100 |
| CC(=O)c1c2c(cc3c1CC1(Cc4cc5c(cc4C1=O)CCC5)C3)CCC2 (stereo not given) | > 100 | > 100 | > 100 | > 100 | > 100 | > 59.4 | > 100 | > 100 | > 100 | > 100 | > 73.7 | > 100 | > 100 | > 100 | > 100 |
| OCCOCCN1CCN(c2nc(N3CCCC3)c3nc(Cl)c(NCc4ccccc4)nc3n2)CC1 | 27.3 | 27.8 | 29.9 | 23 | 28.9 | 29 | 88.3 | 29.5 | 29.4 | 32.7 | 32.9 | 25.3 | 40.7 | 27.4 | 43.5 |
| Oc1ccc2ccccc2c1-c1c(Nc2ccccc2)ccc2ccccc12 | 33.6 | 46.4 | 25 | 48.5 | > 50.1 | 48.4 | 29.7 | > 42.7 | > 61.2 | 28.1 | 44.7 | 32.3 | 36.1 | 40.3 | 41.1 |
| O=C(O)CN1CCNCCN(CC(=O)O)CCNCC1 | > 100 | > 100 | > 100 | > 100 | > 100 | 15.2 | > 100 | > 100 | > 100 | > 100 | > 100 | > 100 | > 100 | > 100 | > 100 |
| COc1cc(CNc2nc3ccccc3nc2-c2cccs2)cc(OC)c1OC | 62.5 | 29.6 | 79.3 | 42.6 | > 100 | > 100 | > 100 | > 100 | 37.8 | > 100 | 52.2 | > 100 | 97.7 | > 100 | 74.8 |
| COC(=O)[C@@]12CC[C@]1(C(=O)OC)C1C(C)=CC(=O)O[C@@]12C (stereo not given in full) | > 100 | > 100 | > 100 | > 100 | > 100 | > 100 | > 100 | > 100 | > 100 | > 100 | > 100 | > 100 | > 100 | > 100 | > 100 |
